Common to all, as to assay: KINOMEscan binding assay
Holding throughout (conditions): read-out: % Retention on Solid Support

The target in one test is T1, SRPK2 (Homo sapiens, UniProt P78362).
T1 construct: purchased DiscoveRx KINOMEscan
The method, boiled down:
(§1)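 Competitive displacement at the ATP site served as the measure. Over 400 kinases were included, each exposed to i-CDK9 at 1 and at 10 µM.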

A further test concerns the target T2, TESK1 (Homo sapiens, UniProt Q15569).
T2 construct: purchased DiscoveRx KINOMEscan
An outline of the steps:
as §1

A further test deals with T3, MAST1 (Homo sapiens, UniProt Q9Y2H9).
T3 construct: purchased DiscoveRx KINOMEscan
T3 sequence (Q9Y2H9 whole entry): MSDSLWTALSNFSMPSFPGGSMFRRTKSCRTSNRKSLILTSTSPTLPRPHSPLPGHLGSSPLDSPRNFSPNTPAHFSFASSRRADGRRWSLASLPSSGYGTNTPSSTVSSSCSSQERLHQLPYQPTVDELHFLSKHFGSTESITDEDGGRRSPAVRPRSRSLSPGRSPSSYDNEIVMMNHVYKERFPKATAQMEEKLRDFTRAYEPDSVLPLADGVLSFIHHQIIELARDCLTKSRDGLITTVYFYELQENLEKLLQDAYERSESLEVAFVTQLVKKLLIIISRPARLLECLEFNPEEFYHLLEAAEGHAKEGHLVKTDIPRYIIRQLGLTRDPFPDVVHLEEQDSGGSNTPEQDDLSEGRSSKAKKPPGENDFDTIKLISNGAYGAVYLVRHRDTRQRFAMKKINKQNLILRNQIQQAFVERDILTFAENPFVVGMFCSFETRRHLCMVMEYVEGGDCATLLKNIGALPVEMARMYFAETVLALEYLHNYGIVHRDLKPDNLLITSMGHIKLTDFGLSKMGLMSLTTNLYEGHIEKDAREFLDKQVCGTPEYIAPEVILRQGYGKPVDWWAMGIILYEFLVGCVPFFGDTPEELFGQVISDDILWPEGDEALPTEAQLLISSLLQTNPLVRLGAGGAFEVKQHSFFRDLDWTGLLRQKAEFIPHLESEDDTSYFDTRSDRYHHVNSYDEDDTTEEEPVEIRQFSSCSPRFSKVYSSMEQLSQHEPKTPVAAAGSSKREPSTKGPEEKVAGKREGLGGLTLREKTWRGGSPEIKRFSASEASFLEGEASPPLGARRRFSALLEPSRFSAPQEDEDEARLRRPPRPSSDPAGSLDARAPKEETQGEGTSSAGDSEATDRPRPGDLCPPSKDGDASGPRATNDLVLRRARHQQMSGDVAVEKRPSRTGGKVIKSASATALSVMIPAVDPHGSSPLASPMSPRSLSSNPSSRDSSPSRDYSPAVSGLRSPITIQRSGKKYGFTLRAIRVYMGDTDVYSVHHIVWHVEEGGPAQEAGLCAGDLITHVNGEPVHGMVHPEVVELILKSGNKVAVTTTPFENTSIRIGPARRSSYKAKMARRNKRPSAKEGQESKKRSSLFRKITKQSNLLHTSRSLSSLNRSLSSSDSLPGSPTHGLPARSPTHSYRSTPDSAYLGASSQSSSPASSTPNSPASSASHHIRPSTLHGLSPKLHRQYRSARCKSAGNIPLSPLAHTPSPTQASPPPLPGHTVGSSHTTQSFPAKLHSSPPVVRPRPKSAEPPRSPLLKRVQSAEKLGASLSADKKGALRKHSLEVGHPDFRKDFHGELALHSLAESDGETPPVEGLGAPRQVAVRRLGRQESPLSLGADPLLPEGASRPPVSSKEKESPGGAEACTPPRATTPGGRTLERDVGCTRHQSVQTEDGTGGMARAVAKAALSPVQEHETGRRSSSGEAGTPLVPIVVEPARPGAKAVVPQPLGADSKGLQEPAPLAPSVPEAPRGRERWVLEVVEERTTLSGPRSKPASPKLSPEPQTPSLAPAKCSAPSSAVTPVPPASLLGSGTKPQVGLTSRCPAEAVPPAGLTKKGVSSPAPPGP
The method, boiled down:
as §1

The target of another test is T4, CLK2 (Homo sapiens, UniProt P49760).
T4 construct: purchased DiscoveRx KINOMEscan
The method, boiled down: as §1

Another test concerns the target T5, ULK2 (Homo sapiens, UniProt Q8IYT8).
T5 construct: purchased DiscoveRx KINOMEscan
An outline of the steps:
as §1

Another test concerns the target T6, HCK (Homo sapiens, UniProt P08631).
T6 construct: purchased DiscoveRx KINOMEscan
An outline of the steps:
as §1

The target of the next test is T7, MAPKAPK2 (Homo sapiens, UniProt P49137).
T7 construct: purchased DiscoveRx KINOMEscan
T7 sequence (P49137 whole entry): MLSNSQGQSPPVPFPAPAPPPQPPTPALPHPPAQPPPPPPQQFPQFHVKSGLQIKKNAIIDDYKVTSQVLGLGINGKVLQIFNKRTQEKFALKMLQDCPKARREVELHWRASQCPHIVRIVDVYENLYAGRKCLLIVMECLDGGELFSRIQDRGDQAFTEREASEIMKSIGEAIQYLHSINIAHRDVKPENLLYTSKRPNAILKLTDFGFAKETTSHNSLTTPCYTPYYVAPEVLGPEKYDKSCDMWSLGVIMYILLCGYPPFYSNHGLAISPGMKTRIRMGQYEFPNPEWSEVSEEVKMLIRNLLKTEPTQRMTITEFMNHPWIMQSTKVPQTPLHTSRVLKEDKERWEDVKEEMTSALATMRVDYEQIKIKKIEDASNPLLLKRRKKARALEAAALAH
The method, boiled down:
as §1

The target in another test is T8, EPHB4 (Homo sapiens, UniProt P54760).
T8 construct: purchased DiscoveRx KINOMEscan
T8 sequence (P54760 16-987): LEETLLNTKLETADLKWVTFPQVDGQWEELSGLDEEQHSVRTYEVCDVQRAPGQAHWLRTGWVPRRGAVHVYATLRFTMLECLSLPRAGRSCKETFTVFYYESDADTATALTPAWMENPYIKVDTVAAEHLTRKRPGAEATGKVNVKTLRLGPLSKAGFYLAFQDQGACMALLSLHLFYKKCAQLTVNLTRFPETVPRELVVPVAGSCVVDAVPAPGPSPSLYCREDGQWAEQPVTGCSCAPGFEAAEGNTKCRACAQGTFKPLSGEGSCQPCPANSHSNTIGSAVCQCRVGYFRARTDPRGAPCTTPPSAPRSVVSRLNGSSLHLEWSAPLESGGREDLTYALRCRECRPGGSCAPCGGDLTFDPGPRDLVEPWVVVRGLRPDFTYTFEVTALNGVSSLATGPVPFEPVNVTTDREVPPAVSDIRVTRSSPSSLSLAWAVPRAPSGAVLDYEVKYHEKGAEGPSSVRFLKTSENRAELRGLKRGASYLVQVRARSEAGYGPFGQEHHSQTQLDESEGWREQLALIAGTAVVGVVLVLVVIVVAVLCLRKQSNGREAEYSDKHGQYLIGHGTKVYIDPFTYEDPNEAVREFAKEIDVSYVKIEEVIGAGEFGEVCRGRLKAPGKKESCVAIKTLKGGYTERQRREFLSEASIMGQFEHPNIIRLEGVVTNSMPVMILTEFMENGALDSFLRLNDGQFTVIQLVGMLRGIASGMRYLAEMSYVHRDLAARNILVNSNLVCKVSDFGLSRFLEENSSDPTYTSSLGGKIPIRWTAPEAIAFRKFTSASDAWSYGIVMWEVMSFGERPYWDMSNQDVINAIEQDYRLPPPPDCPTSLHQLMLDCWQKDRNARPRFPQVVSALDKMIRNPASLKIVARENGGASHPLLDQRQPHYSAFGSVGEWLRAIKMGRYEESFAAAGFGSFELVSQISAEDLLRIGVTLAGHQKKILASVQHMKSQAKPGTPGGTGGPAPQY
An outline of the steps: as §1

The target in another test is T9, TAOK3 (Homo sapiens, UniProt Q9H2K8).
T9 construct: purchased DiscoveRx KINOMEscan
T9 sequence (Q9H2K8 1-898): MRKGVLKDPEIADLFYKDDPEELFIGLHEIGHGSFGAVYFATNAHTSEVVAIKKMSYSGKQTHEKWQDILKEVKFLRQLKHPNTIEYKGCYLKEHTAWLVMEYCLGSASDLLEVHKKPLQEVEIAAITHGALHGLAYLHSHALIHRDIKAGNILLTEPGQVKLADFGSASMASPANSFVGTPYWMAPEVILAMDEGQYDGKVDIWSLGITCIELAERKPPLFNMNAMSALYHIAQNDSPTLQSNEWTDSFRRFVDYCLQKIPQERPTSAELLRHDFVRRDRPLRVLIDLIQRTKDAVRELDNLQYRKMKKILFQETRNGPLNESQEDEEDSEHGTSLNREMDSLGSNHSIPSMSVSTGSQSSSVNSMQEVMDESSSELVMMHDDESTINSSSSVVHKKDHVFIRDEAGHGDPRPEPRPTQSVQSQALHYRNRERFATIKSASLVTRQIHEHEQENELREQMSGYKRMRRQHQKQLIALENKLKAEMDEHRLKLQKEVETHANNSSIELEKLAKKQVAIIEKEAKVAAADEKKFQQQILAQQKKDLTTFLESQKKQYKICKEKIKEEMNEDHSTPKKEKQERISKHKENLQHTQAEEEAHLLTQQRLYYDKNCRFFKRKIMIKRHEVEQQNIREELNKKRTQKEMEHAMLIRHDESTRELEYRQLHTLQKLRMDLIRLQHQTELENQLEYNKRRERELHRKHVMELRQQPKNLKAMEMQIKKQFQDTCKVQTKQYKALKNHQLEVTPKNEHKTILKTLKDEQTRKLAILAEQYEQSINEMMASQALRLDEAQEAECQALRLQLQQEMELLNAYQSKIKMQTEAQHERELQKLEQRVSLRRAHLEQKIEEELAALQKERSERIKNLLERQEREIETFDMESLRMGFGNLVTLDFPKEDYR
An outline of the steps:
as §1

SMILES strings stand for the structures.

T6 sequence (P08631 whole entry): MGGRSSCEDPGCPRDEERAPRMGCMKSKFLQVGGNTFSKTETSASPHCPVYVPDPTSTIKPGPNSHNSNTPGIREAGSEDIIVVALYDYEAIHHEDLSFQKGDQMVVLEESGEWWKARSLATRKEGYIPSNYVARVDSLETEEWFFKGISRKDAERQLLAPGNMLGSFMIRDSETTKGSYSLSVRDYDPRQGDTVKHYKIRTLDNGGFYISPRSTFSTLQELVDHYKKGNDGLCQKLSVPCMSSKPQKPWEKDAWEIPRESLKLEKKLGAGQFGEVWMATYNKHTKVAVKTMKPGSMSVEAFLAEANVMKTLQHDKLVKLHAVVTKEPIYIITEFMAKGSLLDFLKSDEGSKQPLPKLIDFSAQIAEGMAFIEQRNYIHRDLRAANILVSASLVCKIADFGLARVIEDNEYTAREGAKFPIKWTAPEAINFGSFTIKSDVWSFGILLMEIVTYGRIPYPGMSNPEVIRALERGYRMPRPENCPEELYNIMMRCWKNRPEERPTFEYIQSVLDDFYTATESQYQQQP
T1 sequence (P78362 whole entry): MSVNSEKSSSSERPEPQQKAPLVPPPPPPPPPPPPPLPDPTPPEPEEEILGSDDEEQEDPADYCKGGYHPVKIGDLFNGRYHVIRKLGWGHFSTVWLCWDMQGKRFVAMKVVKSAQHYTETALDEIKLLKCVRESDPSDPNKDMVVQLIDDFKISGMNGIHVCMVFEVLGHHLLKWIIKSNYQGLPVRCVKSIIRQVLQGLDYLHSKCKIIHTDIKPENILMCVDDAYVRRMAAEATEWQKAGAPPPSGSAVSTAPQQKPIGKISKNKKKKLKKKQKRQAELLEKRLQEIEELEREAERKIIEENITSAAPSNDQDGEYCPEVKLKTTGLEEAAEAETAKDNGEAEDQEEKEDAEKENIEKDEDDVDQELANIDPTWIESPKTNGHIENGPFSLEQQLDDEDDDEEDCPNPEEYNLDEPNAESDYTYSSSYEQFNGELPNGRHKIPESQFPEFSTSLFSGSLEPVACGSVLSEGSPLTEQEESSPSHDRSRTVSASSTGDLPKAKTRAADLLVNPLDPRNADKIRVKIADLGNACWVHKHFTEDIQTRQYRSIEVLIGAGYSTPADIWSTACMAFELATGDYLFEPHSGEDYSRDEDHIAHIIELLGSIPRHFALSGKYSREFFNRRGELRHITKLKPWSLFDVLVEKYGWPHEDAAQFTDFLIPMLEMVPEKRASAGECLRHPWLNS
T5 sequence (Q8IYT8 whole entry): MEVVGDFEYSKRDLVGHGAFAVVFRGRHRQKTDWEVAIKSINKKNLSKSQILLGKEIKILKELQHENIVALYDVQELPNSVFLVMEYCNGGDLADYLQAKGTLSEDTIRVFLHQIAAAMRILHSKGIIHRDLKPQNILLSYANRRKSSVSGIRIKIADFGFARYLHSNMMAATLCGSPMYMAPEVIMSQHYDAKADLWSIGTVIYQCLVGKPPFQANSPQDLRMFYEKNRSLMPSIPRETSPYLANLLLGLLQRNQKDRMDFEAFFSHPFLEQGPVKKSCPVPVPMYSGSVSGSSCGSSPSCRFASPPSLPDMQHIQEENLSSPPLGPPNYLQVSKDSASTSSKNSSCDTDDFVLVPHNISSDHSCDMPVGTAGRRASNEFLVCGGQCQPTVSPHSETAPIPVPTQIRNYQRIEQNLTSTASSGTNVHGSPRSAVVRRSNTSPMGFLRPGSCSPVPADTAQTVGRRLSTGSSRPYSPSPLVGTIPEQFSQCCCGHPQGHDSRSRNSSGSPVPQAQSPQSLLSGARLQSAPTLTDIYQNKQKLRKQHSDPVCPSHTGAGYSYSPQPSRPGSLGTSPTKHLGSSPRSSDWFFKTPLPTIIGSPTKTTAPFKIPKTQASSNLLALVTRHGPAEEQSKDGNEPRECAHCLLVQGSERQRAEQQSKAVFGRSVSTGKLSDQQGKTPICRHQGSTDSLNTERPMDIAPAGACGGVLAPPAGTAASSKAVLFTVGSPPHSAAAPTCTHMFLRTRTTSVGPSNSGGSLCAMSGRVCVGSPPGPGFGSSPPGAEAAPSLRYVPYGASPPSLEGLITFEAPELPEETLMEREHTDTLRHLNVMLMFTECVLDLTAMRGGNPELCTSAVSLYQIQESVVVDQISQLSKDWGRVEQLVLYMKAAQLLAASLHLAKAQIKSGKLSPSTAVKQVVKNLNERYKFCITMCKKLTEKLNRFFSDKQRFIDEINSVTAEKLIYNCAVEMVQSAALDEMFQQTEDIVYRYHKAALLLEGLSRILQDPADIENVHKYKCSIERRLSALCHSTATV
T2 sequence (Q15569 whole entry): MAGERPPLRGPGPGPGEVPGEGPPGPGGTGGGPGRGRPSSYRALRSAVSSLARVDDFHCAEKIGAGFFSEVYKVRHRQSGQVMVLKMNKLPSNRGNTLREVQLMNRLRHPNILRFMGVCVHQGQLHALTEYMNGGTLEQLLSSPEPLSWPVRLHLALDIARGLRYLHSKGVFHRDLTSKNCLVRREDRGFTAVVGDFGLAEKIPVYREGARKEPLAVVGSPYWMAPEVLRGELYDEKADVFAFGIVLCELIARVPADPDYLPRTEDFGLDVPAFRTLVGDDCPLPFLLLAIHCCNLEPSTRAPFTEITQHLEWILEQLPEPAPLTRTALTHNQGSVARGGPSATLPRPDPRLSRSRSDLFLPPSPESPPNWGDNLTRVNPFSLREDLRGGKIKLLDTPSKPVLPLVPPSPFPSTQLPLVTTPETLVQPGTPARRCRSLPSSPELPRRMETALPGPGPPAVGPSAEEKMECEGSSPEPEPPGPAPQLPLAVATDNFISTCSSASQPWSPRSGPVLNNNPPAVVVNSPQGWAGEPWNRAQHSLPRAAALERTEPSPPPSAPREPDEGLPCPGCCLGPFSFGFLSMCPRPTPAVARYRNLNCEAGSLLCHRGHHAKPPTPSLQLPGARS

For the compound `N[C@H]1CC[C@H](Nc2cc(-c3cccc(NCc4cccc(F)c4)n3)c(Cl)cn2)CC1` [i-CDK9, N2′-(trans-4-aminocyclohexyl)-5′-chloro-N6-(3-fluorobenzyl)-2,4′-bipyridine-2′,6-diamine], the remaining binding at 1 µM amounted to 57% on SRPK2 (1 µM i-CDK9); 100% at TESK1 (1 µM i-CDK9); 100% on MAST1 (1 µM i-CDK9); 61% at CLK2 (1 µM i-CDK9); 100% on ULK2 (1 µM i-CDK9); 81% on HCK (1 µM i-CDK9). Also, the results for the remaining binding at 1 µM on MAPKAPK2 (1 µM i-CDK9), on EPHB4 (1 µM i-CDK9) and at TAOK3 (1 µM i-CDK9) were 100%, 100% and 12%, respectively. The remaining binding at 10 µM amounted to 100% on SRPK2 (10 µM i-CDK9); 57% at TESK1 (10 µM i-CDK9); 82% on MAST1 (10 µM i-CDK9); 26% on CLK2 (10 µM i-CDK9); 100% at ULK2 (10 µM i-CDK9); 100% at HCK (10 µM i-CDK9). The values for the remaining binding at 10 µM on MAPKAPK2 (10 µM i-CDK9), at EPHB4 (10 µM i-CDK9) and at TAOK3 (10 µM i-CDK9) were 100%, 100% and 1.2%, respectively.

The record behind these values is article PMC4490784, “Compensatory induction of MYC expression by sustained CDK9 inhibition via a BRD4-dependent mechanism” (eLife, 2015).
